Tested on: Monoclonal antibody cocktail-induced arthritis mice
Experiment: Arthritis suppressing effects on arthritis-induced mice, Part 3
Format: in vivo
Details: 10 mg/kg intravenously once a day from day 4, 10 days
Description: Monoclonal antibody cocktail-induced arthritis mice were used to examine arthritis suppressing effects of peptides which are indicated as R13 and R17 in the section (3) in Example 2. Arthritis was caused by intravenous administration of 2 mg/mouse of an arthritis-inducing monoclonal antibody cocktail and three days later, intraperitoneal administration of 50 μg/mouse of LPS. The peptides were given via intraperitoneal or intravenous administration at a dose of 10 mg/kg once a day for a period of 10 consecutive days from four days after the administration of the arthritis-inducing monoclonal antibody cocktail, and arthritis suppressing effect was examined in terms of clinical score and hind-limb volume determination.
The required amount was calculated for each peptide, based on the animal weight. Each peptide solution was prepared using physiological saline (at 0.1 mg/ml for R1, 1 mg/ml for R2, and 1 or 10 mg/ml for R13 and R17), and cold stored. […]
Results of examinations were expressed by mean value±standard error and analyzed using EXSAS (Version 7.1.6, Arm Systex Co., Ltd.). […] Quantitative data, such as body weights and leg volumes, were subjected to Bartlett's test, followed by Dunnett's multiple comparison test when the variance was uniform or Steel's multiple comparison test when the variance was not uniform.

In the case of “KFTSKVPGLYYFVYH (Immunoglobulin binding peptide) [R17]”, the “arthritis-suppressing effect (clinical score)” value is reported as “arthritis-suppressing effects comparable to those of the groups receiving administration of R1 (intravenously) or R2 (intraperitoneally)”.

— patent US20110306554A1, “PEPTIDE CAPABLE OF BINDING TO IMMUNOGLOBULIN” (priority 2009, published 2011)
